The text below walks through data of patent US8932590B2, “Method of adsorbing transforming growth factor β” (TORAY Industries, Inc., priority 2002, dated 2015).

Where a name gives a salt, the structure may show the parent alone.

In assay [1] the test system is tumor. As to the kind of experiment: Visual observation of tumor metastasis. It counts as in vivo, rat. Conditions: rats dissected 35 days after the extracorporeal perfusion, region other than beneath the back skin. An excerpt:
The test procedures of Examples 10 to 15 and Comparative Examples 11 to 22 were repeated, except for using three other rats (Examples 16 to 18, and Comparative Examples 21 to 26). The metastasis of the tumor to a region other than beneath the back skin to which the tumor was inoculated was visually observed (Table 6). The rats were dissected 35 days after the extracorporeal perfusion, and the tumor was observed. As a result, the metastasis was hardly observed in cases in which the extracorporeal perfusion treatment was carried out two days into the administration of gemcitabine hydrochloride.

The test system of assay [2] is tumor. Nature of the assay: Combined treatment of anticancer agent and extracorporeal perfusion: tumor volume. The following applies: anticancer agent administered, no extracorporeal perfusion. It counts as in vivo, rat. On the procedure:
The dimensions of the tumor region of a rat were measured using micrometer calipers. The longest diameter of the tumor was defined as the major axis, and a diameter of the tumor passing through the midpoint of the major axis in a direction perpendicular to the major axis was defined as the minor axis. The tumor volume was defined according to the following equation: Tumor Volume=(Major Axis)×(Minor Axis)×(Minor Axis)×0.5[Adsorbent for TGF β and Immunosuppressive Acidic Protein] […]
One week after the inoculation of cancer cells (rat body weight: 400 to 430 g), 0.6 mg of gemcitabine hydrochloride was injected in the vicinity of the tumor. The gemcitabine hydrochloride used herein was prepared by dissolving an injection preparation thereof (available from Eli Lilly Japan K.K.) in physiological saline to yield a 20 mg/mL solution. […]
Six rats were treated, and the tumor volumes after the inoculation of cancer cells were determined. The results in Comparative Examples 15 to 20, in which the anticancer agent was administered but the extracorporeal perfusion treatment was not carried out, are shown in Table 5.

For the compound `Nc1ccn([C@@H]2O[C@H](CO)[C@@H](O)C2(F)F)c(=O)n1` [Comparative Example 15, gemcitabine hydrochloride], the “Metastasis (visual observation)” value in the assay with tumor [1] (listed as Com. Ex. 25, hydrochloride) was “dermic micrometastasis (2 mm”; in the assay with tumor [1] (listed as Com. Ex. 26, hydrochloride), “dermic micrometastasis (2 mm”. Moreover, the Tumor volume with tumor [2] (14 days after inoculation of cancer cells) is below 0.06 mL; in the assay with tumor [2] (21 days after inoculation of cancer cells, hydrochloride), 4.3 mL; in the assay with tumor [2] (21 days after inoculation of cancer cells, listed as Comparative Example 16, hydrochloride) it was 7.9 mL; in the assay on tumor [2] (21 days after inoculation of cancer cells, listed as Comparative Example 17, hydrochloride), 6.6 mL; in the assay with tumor [2] (21 days after inoculation of cancer cells, listed as Comparative Example 18, hydrochloride), 7.4 mL; in the assay on tumor [2] (21 days after inoculation of cancer cells, listed as Comparative Example 19, hydrochloride) it was 7.0 mL. Moreover, the Tumor volume with tumor [2] (21 days after inoculation of cancer cells, listed as Comparative Example 20, hydrochloride) turned out to be 4.5 mL; in the assay on tumor [2] (28 days after inoculation of cancer cells, hydrochloride) it was 26 mL; with tumor [2] (28 days after inoculation of cancer cells, listed as Comparative Example 16, hydrochloride), 41 mL; in the assay on tumor [2] (28 days after inoculation of cancer cells, listed as Comparative Example 17, hydrochloride), 24 mL; in the assay with tumor [2] (28 days after inoculation of cancer cells, listed as Comparative Example 18, hydrochloride), 35 mL; in the assay with tumor [2] (28 days after inoculation of cancer cells, listed as Comparative Example 19, hydrochloride), 30 mL. Moreover, the Tumor volume with tumor [2] (28 days after inoculation of cancer cells, listed as Comparative Example 20, hydrochloride) was found to be 25 mL; with tumor [2] (35 days after inoculation of cancer cells, hydrochloride), 41 mL; in the assay with tumor [2] (35 days after inoculation of cancer cells, listed as Comparative Example 16, hydrochloride) it was 59 mL; in the assay on tumor [2] (35 days after inoculation of cancer cells, listed as Comparative Example 17, hydrochloride), 38 mL; in the assay with tumor [2] (35 days after inoculation of cancer cells, listed as Comparative Example 18, hydrochloride) it was 54 mL; with tumor [2] (35 days after inoculation of cancer cells, listed as Comparative Example 19, hydrochloride) it was 47 mL. Also, in the assay with tumor [2] (35 days after inoculation of cancer cells, listed as Comparative Example 20, hydrochloride), the Tumor volume is recorded as 37 mL.
